Results taken from ChEMBL document CHEMBL1671839 (ACS Med Chem Lett, 2011).

Key:
in vivo [1] = conditions: Wistar, rat, po, 10 mg/kg
in vivo [2] = conditions: Wistar, rat, iv, 1 mg/kg
in vivo [3] = conditions: Wistar, rat, po, 10 mg/kg; remark: listed apart in the source
in vivo [4] = conditions: Wistar, rat, iv, 1 mg/kg; remark: listed apart in the source
Rattus norvegicus = species: Rattus norvegicus; conditions: in vivo, iv, 1 mg/kg
[5] = Tmax in Beagle dog at 1 mg/kg, po; assay type: ADME, organism-based, Canis lupus familiaris; parameters: dose 1 mg/kg, route oral; conditions: in vivo
[6] = AUC in cynomolgus monkey at 0.5 mg/kg, iv; assay type: ADME, organism-based, Macaca fascicularis; parameters: dose 0.5 mg/kg, route intravenous; conditions: plasma
[7] = Plasma clearance in Beagle dog at 1 mg/kg, iv; assay type: ADME, organism-based, Canis lupus familiaris; parameters: dose 1 mg/kg, route intravenous
in vivo [8] = conditions: Wistar, rat, plasma, iv, 1 mg/kg
in vitro [9] = conditions: human, liver microsomes
in vitro [10] = conditions: rat, liver microsomes
[11] = Plasma clearance in cynomolgus monkey at 0.5 mg/kg, iv; assay type: ADME, organism-based, Macaca fascicularis; parameters: dose 0.5 mg/kg, route intravenous
[12] = Half life in cynomolgus monkey at 0.5 mg/kg, iv; assay type: ADME, organism-based, Macaca fascicularis; parameters: dose 0.5 mg/kg, route intravenous; conditions: in vivo
[13] = Cmax in Beagle dog at 1 mg/kg, po; assay type: ADME, organism-based, Canis lupus familiaris; parameters: dose 1 mg/kg, route oral; conditions: in vivo
[14] = Volume of distribution at steady state in cynomolgus monkey at 0.5 mg/kg, iv; assay type: ADME, organism-based, Macaca fascicularis; parameters: dose 0.5 mg/kg, route intravenous; conditions: in vivo, read-out: Vdss
[15] = Tmax in BALB/c mouse at 10 mg/kg, po; assay type: ADME, organism-based; parameters: dose 10 mg/kg, route oral; conditions: in vivo
[16] = Volume of distribution at steady state in Beagle dog at 1 mg/kg, iv; assay type: ADME, organism-based, Canis lupus familiaris; parameters: dose 1 mg/kg, route intravenous; conditions: in vivo, read-out: Vdss
[17] = Half life in Beagle dog at 1 mg/kg, iv; assay type: ADME, organism-based, Canis lupus familiaris; parameters: dose 1 mg/kg, route intravenous; conditions: in vivo
[18] = Oral bioavailability in Beagle dog at 1 mg/kg; assay type: ADME, organism-based, Canis lupus familiaris; conditions: in vivo
in vivo [19] = conditions: Wistar, rat, po, 10 mg/kg; remark: listed apart in the source
[20] = Cmax in cynomolgus monkey at 1 mg/kg, po; assay type: ADME, organism-based, Macaca fascicularis; parameters: dose 1 mg/kg, route oral; conditions: in vivo
[21] = Terminal phase volume of distribution […] in cynomolgus monkey at 0.5 mg/kg, iv; assay type: ADME, organism-based, Macaca fascicularis; parameters: dose 0.5 mg/kg, route intravenous; conditions: in vivo, read-out: Vbeta
[22] = Tmax in cynomolgus monkey at 1 mg/kg, po; assay type: ADME, organism-based, Macaca fascicularis; parameters: dose 1 mg/kg, route oral; conditions: in vivo
[23] = AUC in Beagle dog at 1 mg/kg, iv; assay type: ADME, organism-based, Canis lupus familiaris; parameters: dose 1 mg/kg, route intravenous; conditions: plasma
[24] = Terminal phase volume of distribution […] in Beagle dog at 1 mg/kg, iv; assay type: ADME, organism-based, Canis lupus familiaris; parameters: dose 1 mg/kg, route intravenous; conditions: in vivo, read-out: Vbeta
in vivo [25] = conditions: Wistar, rat, plasma, iv, 1 mg/kg; remark: listed apart in the source
[26] = Oral bioavailability in cynomolgus monkey at 1 mg/kg; assay type: ADME, organism-based, Macaca fascicularis; conditions: in vivo
[27] = Cmax in BALB/c mouse at 10 mg/kg, po; assay type: ADME, organism-based; parameters: dose 10 mg/kg, route oral; conditions: in vivo

CC(=O)Nc1cnc(-c2ccncc2)c(-c2ccco2)n1
bioavailability (in vivo [1]): 93% | half-life (in vivo [2]): 0.4 h | Tmax (in vivo [3]): 1.1 h | Vd (in vivo [4]): 0.8 L/kg | AUC (Rattus norvegicus): 751000 ng·h/mL

O=C(Nc1cnc(-c2ccncc2F)c(-c2cccnc2)n1)C1CC1 [LAS101057]
Tmax [5]: 2 h | AUC [6]: 3400 ng·h/mL | clearance [7]: 1.7 mL/min/kg | AUC (in vivo [8]): 920 ng·h/mL | metabolised at 0.5 h, 5 µM (in vitro [9]): 5% | metabolised at 0.5 h, 5 µM (in vitro [10]): 13% | clearance [11]: 3.4 mL/min/kg | bioavailability (in vivo [1]): 100% | half-life [12]: 3.8 h | Cmax [13]: 820 ng/mL | half-life (in vivo [2]): 0.8 h | Vd [14]: 0.4 L/kg | Tmax [15]: 0.25 h | Vd [16]: 0.8 L/kg | half-life [17]: 8.6 h | Tmax (in vivo [3]): 0.25 h | bioavailability [18]: 98% | Cmax (in vivo [19]): 7110 ng/mL | Cmax [20]: 5900 ng/mL | Vd [21]: 0.8 L/kg | Tmax [22]: 3 h | AUC [23]: 13600 ng·h/mL | Vd [24]: 0.9 L/kg | Vd (in vivo [4]): 1.2 L/kg | clearance (in vivo [25]): 18.3 mL/min/kg | bioavailability [26]: 100% | Cmax [27]: 17400 ng/mL
